Columns and labels:
Hela cells = assay: Clonogenic survival assay of Hela cells after 4×0.5 Gy irradiation; format: cell-based, human; conditions: 4×0.5 Gy spaced 2 hours, Dbait transfected with Superfect (83 nM or 2 μg)
Experimental: (§1) Exponentially growing cells in six-well plates were harvested and incubated with […] of complete DMEM containing a mixture of Dbait molecules and Superfect reagent (Qiagen, Courtaboeuf, France) in a ratio of 10 μl Superfect per μg DNA. After 5 h at 37° C. under standard conditions, the cells were washed with PBS and complete DMEM was added. Where indicated, cells were exposed to irradiation either in one session (10 Gy) 5 h after the beginning of transfection or in four sessions of 0.5 Gy administered with a ^137Cs unit (1 Gy/min) 3, 4, 5 and 6 h after the beginning of transfection and allowed to grow for two weeks. When plasmid integration was measured, 2 μg of plasmid was added to Dbait transfection and puromycin (1.7 μg/ml) was added to the growth medium 48 h after transfection. Plasmid transfection efficiency was estimated by analyzing 10,000 cells for GFP expression on a FACScan flow cytometer (FACSalibur, Beckton-Dickinson, USA).
Upon 8 hours transfection of Dbait molecules in Hela cells and four irradiation with 0.5 Gy fractionated irradiation spaced 2 hours (4×0.5 Gy), performed with γ-rays from a ^137Cs source, a significant reduction of clonogenic survival was observed as compared to untransfected cells. The results are given on FIG. 2.1 wherein Panel A gives the dose-dependence of normalized survival clone number in the presence of Dbait32 (SEQ ID NO: 1) and Dbait32H (SEQ ID NO: 1), and Panel B, the normalized survival clone number in the presence of different Dbait molecules at 83 nM (concentration in culture medium). Cell culture was in MEM supplemented with 10% serum. Superfect (Qiagene) was used as transfection agent according to the manufacturer's instruction.
Clonogenic survival was estimated as the number of treated cells forming colonies on the number of untreated cells.

DNA-PK = biological target: T1, DNA-PK (Homo sapiens, UniProt P12956+P13010+P78527); assay: DNA-dependent protein kinase (DNA-PK) activity assay in Hep2 nuclear extract; format: biochemical; conditions: 2 μg Dbait, 1.5 μg Hep2 nuclear protein extract
T1 construct: Increasing amounts of Hep2 nuclear extract (cleaned of endogenous DNA by DEAE-Sepharose filtration) were assayed; endogenous in cells; host or cells: Hep2 cells (nuclear extract, DNA removed by DEAE-Sepharose filtration)
Experimental: (§2) DNA-PK activity was monitored using the kit SignaTECT DNA-dependent Protein Kinase Assay System (Promega, Madison, USA). Increasing amounts of Hep2 nuclear extract (cleaned of endogenous DNA by DEAE-Sepharose filtration) were assayed in the presence of 250 nM Dbait. Extract, biotinylated peptide substrate and various amount of nuclear extract were incubated 5 minutes at 30° C. with (γ-^32P)ATP according to manufacturer indications. The biotinylated substrate was capture on streptavidine membrane, washed and counted in a scintillation counter. Percentage of phosphorylation is calculated by dividing the bound radioactivity by the total count of (γ-^32P)ATP per sample. Reactions (10 μl) were carried out in 60 mM KOAc, 100 μg/ml BSA, 0.5 mM Mg(Cl)2, 1 μl T4 DNA ligase 10× buffer (Promega, Madison, USA). Nuclear extract and Dbait were incubated 2 minutes before addition of ^32P-labeled DNA (10 ng). Samples were incubated various time at 37° C. before ligation being stopped by 20 mM EDTA and 1 mg/ml Proteinase K addition. Ligation products were analyzed by electrophoresis through 0.7% agarose gels followed by autoradiography and quantification by phosphorimaging.
The kinase activity depended directly on the length and structure of the double-stranded ‘stem’ of the Dbait molecule. […] In addition, various backbone modifications (phosphothioate, methyphosphonate, 3′-3′ linkage) at the free blunt end (up to 3-bp), as well as the internally tagged ligands (e.g. fluorescent dyes), are capable of activating DNA-PK activity.

[1] = tested on: DNA end-joining reaction in the nuclear extracts of Hep2 cells; assay: DNA end-joining assay in Hep2 nuclear extract; format: biochemical, human; conditions: 2 h incubation with various Dbait
Experimental: DNA end-joining was monitored by incubating ^32P-labeled 605-bp linear DNA fragments with Hep2 nuclear extract in the presence of various Dbait molecules. Ligation products migrate as dimers, trimers or tetramers, starting 605 bp monomer.
Approximately 16% of the ^32P-labeled blunt linear duplex DNA molecules were ligated into dimers and trimers during the first 2 h of incubation. The amount of high molecular weight ligation products increased up to 30% of the total input DNA after 16 h. […] In most experiments, Dbait32H (SEQ ID NO: 1) was added simultaneously with the labeled DNA fragments to the nuclear extract.
Various Dbait molecules were tested for their effect on the cell-free assay by adding the molecules to nuclear extract and incubating for 2 h with the DNA fragments.
as §2

Ku complex = biological target: T2, Ku complex (Homo sapiens, UniProt P12956+P13010); assay: Band-shift assay with Hep2 nuclear protein extracts; format: binding; conditions: for retarded bands in band-shift assay: 10 nM 32P radio-labelled Dbait, 0-320 ng/μL Hep2 nuclear proteins, 30° C., 10 minutes
T2 construct: in the presence of nuclear protein extracts from Hep2 cells according to standard protocol; endogenous in cells; host or cells: Hep2 cells (nuclear protein extract)
T2 sequence (P12956 whole entry): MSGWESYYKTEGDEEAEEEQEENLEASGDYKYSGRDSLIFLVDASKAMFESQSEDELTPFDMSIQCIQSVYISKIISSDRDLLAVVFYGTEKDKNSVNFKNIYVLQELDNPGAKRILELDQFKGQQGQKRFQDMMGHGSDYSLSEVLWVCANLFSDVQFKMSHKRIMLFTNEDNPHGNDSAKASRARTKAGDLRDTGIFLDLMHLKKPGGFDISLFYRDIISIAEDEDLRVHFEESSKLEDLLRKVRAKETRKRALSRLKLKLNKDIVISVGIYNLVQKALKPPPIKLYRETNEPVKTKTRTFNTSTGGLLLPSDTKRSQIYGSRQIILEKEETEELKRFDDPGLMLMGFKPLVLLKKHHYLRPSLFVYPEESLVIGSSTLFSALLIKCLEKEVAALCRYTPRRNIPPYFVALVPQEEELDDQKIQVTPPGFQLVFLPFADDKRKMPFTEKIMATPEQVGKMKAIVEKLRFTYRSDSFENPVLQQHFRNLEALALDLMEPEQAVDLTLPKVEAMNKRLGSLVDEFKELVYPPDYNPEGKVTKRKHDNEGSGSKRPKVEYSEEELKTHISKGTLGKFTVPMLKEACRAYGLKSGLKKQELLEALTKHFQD
T2 sequence (P13010 whole entry): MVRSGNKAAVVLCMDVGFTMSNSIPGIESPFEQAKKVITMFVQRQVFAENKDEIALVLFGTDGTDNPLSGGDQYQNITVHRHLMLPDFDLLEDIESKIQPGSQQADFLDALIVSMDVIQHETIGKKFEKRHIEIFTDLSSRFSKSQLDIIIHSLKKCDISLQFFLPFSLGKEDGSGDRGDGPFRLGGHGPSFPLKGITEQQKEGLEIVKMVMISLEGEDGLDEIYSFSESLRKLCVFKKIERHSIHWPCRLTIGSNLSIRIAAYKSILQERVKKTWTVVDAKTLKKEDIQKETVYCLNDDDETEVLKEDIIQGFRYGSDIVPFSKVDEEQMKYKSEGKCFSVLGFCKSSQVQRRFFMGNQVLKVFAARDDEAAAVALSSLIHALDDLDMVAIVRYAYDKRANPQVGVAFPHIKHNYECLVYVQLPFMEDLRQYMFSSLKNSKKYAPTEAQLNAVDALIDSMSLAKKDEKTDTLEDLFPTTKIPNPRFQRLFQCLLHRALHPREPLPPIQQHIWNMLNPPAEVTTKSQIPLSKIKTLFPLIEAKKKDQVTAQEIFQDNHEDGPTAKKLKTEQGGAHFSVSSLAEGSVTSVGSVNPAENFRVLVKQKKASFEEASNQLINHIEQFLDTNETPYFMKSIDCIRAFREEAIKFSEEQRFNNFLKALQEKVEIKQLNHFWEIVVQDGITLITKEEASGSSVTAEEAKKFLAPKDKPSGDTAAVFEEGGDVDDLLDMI
Experimental: As the first step to dissect the mechanism of action of Dbait molecules, a series of band-shift assays were carried out with different ^32P radio-labelled Dbait molecules in the presence of nuclear protein extracts from Hep2 cells according to standard protocol. Typically, 10 nM ^32P radio-labelled Dbait molecules were incubated in the presence of various concentrations of nuclear proteins (0, 10, 20, 40, 80, 160, and 320 ng/μL) at 30° C. for 10 minutes in TBE buffer. Then the samples were loaded on a 5% acrylamide native gel. The electrophoresis was run at 95V for 2 hours at 4° C. The gel was dried and scanned by phosphorimager (Molecular Dynamics).
For 32-bp Dbait molecules, the intensity of the retarded band 1 increases and then decreases as the concentration of protein increases, while the intensity of the retarded band 2 increases as a function of the concentration of nuclear protein extracts.
It is likely that band 1 has one Ku70/80 complex bound to the 16 to 32-bp Dbait, whereas the band 2 has two Ku70/80 complexes bound to the 32-bp Dbait molecules. Control experiments performed with purified Ku proteins confirmed this interpretation.

[2] = tested on: radiation-enhanced illegitimate integration of a plasmid in Hela cells; assay: Inhibition of radiation-enhanced illegitimate integration of exogenous DNA; format: cell-based, human; conditions: 2 μg Dbait, fractionated 4×0.5 Gy irradiation
Experimental: as §1
Ionizing radiation is known to improve illegitimate integration of exogenous DNA, a process termed radiation-enhanced integration. Hela cell culture was used for this assay. Cells were transfected during 8 hours by 2 μg of a linear plasmid carrying the gene coding for neomycin resistance, and three different ratio of DNA/superfect (1:2, 1:5, 1:10). During transfection time, the cells were exposed to different irradiation protocols: no irradiation, one single irradiation of 1 Gy and 2 Gy, as well as a 2 Gy irradiation delivered by fractionated doses of 0.5 Gy every 2 hours (4×0.5 Gy). The integration of the plasmid was monitored by selection of Neo^R cells growing in a medium containing 0.6 mg/ml of G418. […] When 2 μg of Dbait32H (SEQ ID NO: 1) molecules were added to the transfection mix, the radiation-enhanced integration was abolished (FIG. 2.3).
Wortmann (Wort) and NU7026 (NU) which are known inhibitors of PI3K (including DNA-PK) were used as control.

Substance	clonogenic survival (Hela cells)	ligation of DNA fragments in cell-free assay [1]	retarded bands in band-shift assay (Ku complex)	other results
5′ACGCACGGGTGTTGGGTCGTTTGTTCGGATCT ACGCACGGTCGTTTGTTCGGTGTTGGCGATCT3′ [Dbait64L]	significantly reduced clonogenic survival			
5′ACGCACGGGTGTTGGGTCGTTTGTTCGGATCTACGCACGGTCGTTTGTTCGGTGTTGGCGATCT3′ [Dbait64]	significantly reduced clonogenic survival			
Dbait24H: hairpin double strand DNA with a stem of 24-bp (DNA ACGCACGGGTGTTGGGTCGTTTGT; DNA, backbone not given here; hairpin DNA with hexaethyleneglycol loop, 3-bp phosphorothioate at free blunt end)	significantly reduced clonogenic survival	inhibited the ligation as efficiently as Dbait32H	One retarded band	DNA-PK activation (kinase activity) (DNA-PK): inefficient; binding of Ku (Ku complex; Hep2 nuclear extract, band-shift): bound only one Ku dimer
Dbait32-T4: contains four thymines (T4) as a linker instead of a hexaethyleneglycol linker (DNA ACGCACGGGTGTTGGGTCGTTTGTTCGGATCT; DNA, backbone not given here; hairpin DNA with four-thymine loop, 3-bp phosphorothioate at free blunt end)	significantly reduced clonogenic survival			
Dbait32C: dumbbell 32-bp double strand DNA (without free blunt end) (DNA ACGCACGGGTGTTGGGTCGTTTGTTCGGATCT; DNA, backbone not given here; dumbbell duplex DNA, both ends closed by hexaethyleneglycol loops)		largely unaffected		radiation-enhanced illegitimate integration of plasmid (puromycin resistance) [2]: not effective
Dbait32H-po: full length phosphodiester Dbait32H (DNA ACGCACGGGTGTTGGGTCGTTTGTTCGGATCT; DNA, phosphodiester; hairpin DNA closed by hexaethyleneglycol loop)			two retarded band	

— US7476729B2, “Dbait and uses thereof” (Institut Curie, priority 2003, dated 2009)
